Laboratory results reported in patent US12551493B2, “Composition for enhancing therapeutic effect of stem cell, comprising immunosuppressant, and method for enhancing therapeutic effect of stem cell using same” (SAMSUNG LIFE PUBLIC WELFARE FOUNDATION, priority 2019, dated 2026).

Tests used:
Type in all cases: in vivo
helper T cells (CD4) = test: IHC of helper T cells (CD4) in mouse brain after hMSC administration; settings: normal C57B/L6 mice, hMSCs plus immunosuppressant, day 7, compared to hMSC group
Method: (§1) On day 7 after administration of MEM or hMSCs, the brain was extracted by performing cardiac perfusion, and then fixed in PFA, and histological staining was performed by sectioning tissue.
(§2) MEM or hMSCs were administered to normal C57BL/6 and immunodeficient BALB/c nude mice under the same conditions as in Example 3. […]

[1] = tested on: human-derived mesenchymal stem cells (hMSCs); test: qPCR of human-specific ALU DNA sequence in mouse brain (residual amount of hMSCs); settings: normal C57B/L6 mice, hMSCs plus immunosuppressant, compared to hMSC-alone administration group
Iba-1 microglia = test: IHC of Iba-1 microglia in mouse brain after hMSC administration; settings: normal C57B/L6 mice, hMSCs plus immunosuppressant, day 7, compared to hMSC group
Method: as §1, §2

## C=CC[C@@H]1/C=C(\C)C[C@H](C)C[C@H](OC)[C@H]2O[C@@](O)(C(=O)C(=O)N3CCCC[C@H]3C(=O)O[C@H](/C(C)=C/[C@@H]3CC[C@@H](O)[C@H](OC)C3)[C@H](C)[C@@H](O)CC1=O)[C@H](C)C[C@@H]2OC [tacrolimus]
Helper T cells (CD4)
  expression of CD4 (IHC): reduced
[1]
  retention rate (survival rate) of stem cells (qPCR): enhanced
Iba-1 microglia
  expression of Iba-1 (IHC): not statistically significant
